Reference: patent US7355047B2, “Substituted quinolone carboxylic acids, their derivatives, site of action, and uses thereof” (The Regents of the University of California, priority 2002, dated 2008)

Columns and labels:
GABAA receptor = test: [3H]Muscimol binding assay, rat cortex; details: 5 nM [3H]muscimol, FIG. 7
Protocol: [^3H]Muscimol binding assay: The cortex from male Sprague-Dawley rats (160-200 g) was removed immediately after euthanizing and dissected over ice. The tissue was homogenized in 15 vol of 0.32M sucrose followed by centrifugation for 10 min at 1000× g. The supernatant was transferred to a 38 mL polycarbonate tube (Beckman Instruments, Palo Alto Calif.) and centrifuged at 20,000× g for 20 min. The membrane pellet was resuspended in 10 vol of dH2O and centrifuged at 8,000× g for 20 min. The resulting pellet was washed with dH2O once and with Na^+-free assay buffer (40 mM KH2PO4, 100 mM KCl, pH 7.4). The pellet was resuspended in 35 mL of Na^+-free assay buffer, incubated at 37° C. for thirty minutes and then centrifuged 31,000× g for twenty minutes. The final pellet was resuspended in 10 vol of Na^+-free assay buffer. Protein concentration of membrane preparations was ˜1 mg/mL by BCA reagent protein assay. Aliquots of membrane suspension (100 μL) were incubated in Na^+-free assay buffer with 5 nM [^3H]muscimol (25 Ci/mmol, New England Nuclear, Boston, Mass.) and 5 μL of dimethylsulfoxide (DMSO) or drug dissolved in DMSO. The final volume of the incubation medium was 1 mL. […] Filter-bound radioactivity was quantified by LSC after an overnight extraction. The data were evaluated by nonlinear regression to obtain IC50 and EC50 values.

[1] = tested on: GABAA receptor complex (GRC); test: [35S]TBPS binding assay, rat cortex; details: 2 nM [35S]TBPS
Male NSA mice = test: Mouse Light-Dark Transition Model of Anxiety; type: in vivo; details: compared with Diazepam (DZP), FIG. 3
Protocol: Male NSA mice (25-30 g) are used. The apparatus consists of an open-topped box divided into small and large area by a partition that has a hole at floor level. The small compartment is painted black and the large compartment white. The white compartment was illuminated with light and the black compartment with red light. The time spent in the light versus dark compartments and the number of transitions between compartments is recorded during a 5 min test session. Vehicle or test compounds are administered 30 min prior to the test. Diazepam is administered (i.p.) at 2 mg/kg as the positive control. Anti-anxiety agents will reduce the time the animals will spend in the dark compartment and increase the number of transitions between the two compartments.

BZ receptors = test: [3H]Flunitrazepam binding, rat cortex; details: 0.2 nM [3H]flunitrazepam, FIG. 6
Protocol: [^3H]Flunitrazepam binding: assays were carried out under identical conditions, using an identical tissue preparation, as those used in the [^35S]TBPS binding assays with the exception that 1 μM GABA was added to all samples instead of 5 μM GABA. [^3H]Flunitrazepam, 0.2 nM (75 Ci/mmol, New England Nuclear, Boston, Mass.) was used to label BZ sites. Non-specific binding is defined as binding in the presence of 1 μM clonazepam. The data were evaluated by nonlinear regression to obtain IC50 and EC50 values.

[2] = tested on: GABAA receptor complex (GRC); test: [35S]TBPS binding dissociation, mouse forebrain; details: 2 nM [35S]TBPS
[3] = tested on: GABAA receptor complex (GRC); test: [35S]TBPS binding, rat cerebellum; details: 2 nM [35S]TBPS, 30 μM furosemide, FIG. 14
[4] = absence or presence of 3 μM and 10 μM (+)-bicuculline, FIG. 5

CCn1cc(C(=O)O)c(=O)c2cc(NC3CCCc4ccccc43)c(Cl)cc21 (stereo not drawn) [compound 3, 7-chloro-1-ethyl-6-(1,2,3,4-tetrahydronaphthyl-1-amino)-4-oxo-1,4-dihydroquinoline-3-carboxylic acid]
effect on [3H]muscimol binding to the GABAA receptor (GABAA receptor): does not act directly on the GABAA receptor | interaction with 5α,20α-diol inhibition of [35S]TBPS binding (neurosteroid site) ([1]; 10 μM compound 3 or 100 nM 3α,5α-P, rat cortex, FIG. 8): does not act directly on the neurosteroid site of the GRC | effect on [35S]TBPS binding in absence or presence of norfloxacin ([1]; 30 μM and 100 μM norfloxacin, rat cortex, FIG. 9): does not act directly at the same site as the antibacterial quinolone norfloxacin | effect on [35S]TBPS binding in absence or presence of Ro5-4864 (4′-chlorodiazepam) ([1]; 0.3, 1 and 30 μM Ro5-4864, rat cortex, FIG. 11): does not act directly at the same site as 4′-chlorodiazepam | dependence on GABA of the effect on [35S]TBPS binding [1, 4]: absolute dependence of compound 3 on GABA for efficacy | site of action relative to the [35S]TBPS site [1, 4]: allosterically coupled to and does not act directly on the [^35S]TBPS site | dissociation of [35S]TBPS binding in absence or presence of pentobarbital ([1]; initiated by 10 μM compound 3, 30 μM pentobarbital, rat cortex, FIG. 10): do not share a common site of action | anti-anxiety effects, time spent in the dark (Male NSA mice): comparable to that of DZP | effect on [3H]flunitrazepam binding to BZ receptors (BZ receptors): allosterically coupled to and does not act directly on the BZ receptor | dissociation of [35S]TBPS binding in absence or presence of ivermectin ([2]; initiated by 10 μM compound 3, 10 μM ivermectin, FIG. 12): do not share a common site of action | dissociation of [35S]TBPS binding in absence or presence of mefenamic acid ([2]; initiated by 10 μM compound 3, 10 μM mefenamic acid, FIG. 13): do not share a common site of action | effect on [35S]TBPS binding in absence or presence of furosemide [3]: does not act directly at the same site on the GRC as the loop-diuretic furosemide
